Results from patent US20170157135A1 (Novogen Limited, priority 2013, published 2017).

Key:
Type in all cases: cell-based
[1] = tested on: DU145 prostate cancer cells; experiment: Anti-proliferative assay (cell-titre luminescent), DU145; details: Homo sapiens, DU-145; DU145, 72 hours, luminescence
Experimental: (§1) The ability of compounds 2002, 2009 and 2013-2064 to inhibit the proliferation of cancer cells representative of neuroblastoma, melanoma, prostate cancer, colorectal cancer, non-small cell lung carcinoma, and triple negative breast cancer was assessed. These studies were conducted by contract research (GVK-BIO). Briefly, a pre-determined number of cells as calculated from cell growth assays for each of the cell lines employed were seeded into their respective culture medium (using ATCC culture parameters—http://www.atcc.org) and cultured for 24 h at 37° C. and 5% CO2 in 96-well culture plates. Once attached, each cell line was then exposed to various concentrations of each respective analogue (30, 10, 3, 1, 0.3 and 0.1 μM), cultured for a further 72 hours and exposed to cell-titre luminescent reagent (100 μL/well) for a further 30 minutes). Luminescence was captured using an EnVision multilabel reader and the data for each analogue concentration compared against no treatment control. Cell viability was normalized to control (vehicle alone) and dose-response curves, and half maximal effective concentration (EC50) values were determined using Graph Pad Prism 6 (nonlinear regression sigmoidal dose-response variable slope).

[2] = tested on: PC3 prostate cancer cells; experiment: Anti-proliferative assay (cell-titre luminescent), PC3; details: PC3, 72 hours, luminescence
Experimental: as §1

[3] = tested on: SK-N-SH neuroblastoma cells; experiment: Anti-proliferative assay (cell-titre luminescent), SK-N-SH; details: Homo sapiens, 72 hours, luminescence
Experimental: as §1

[4] = tested on: CaCo2 colorectal cancer cells; experiment: Anti-proliferative assay (cell-titre luminescent), CaCo2; details: Homo sapiens, Caco-2; CaCo2, 72 hours, luminescence
Experimental: as §1

[5] = tested on: MDA-MB-231 breast cancer cells; experiment: Anti-proliferative assay (cell-titre luminescent), MDA-MB-231; details: Homo sapiens; MDA-MB-231, 72 hours, luminescence
Experimental: as §1

A549 lung (NSLC) cells = experiment: Anti-proliferative assay (cell-titre luminescent), A549; details: Homo sapiens; A549, 72 hours, luminescence
Experimental: as §1

SK-Mel-28 melanoma cells = experiment: Anti-proliferative assay (cell-titre luminescent), SK-Mel-28; details: Homo sapiens; SK-Mel-28, 72 hours, luminescence
Experimental: as §1

IC50 [1] | IC50 [2] | IC50 [3] | IC50 [4] | IC50 [5] | IC50 (A549 lung (NSLC) cells) | IC50 (SK-Mel-28 melanoma cells) | SMILES
6.9 µM | 7.2 µM | 5.4 µM | 7.4 µM | 4.8 µM | 5.4 µM | 4.3 µM | COc1ccc2c(c1)c(/C=C/C(=O)N1CCN(CCc3cccc(F)c3)CC1)c(C)n2CCCN(C)C [Compound 2021, (E)-3-(1-(3-(dimethylamino)propyl)-5-methoxy-2-methyl-1H-indol-3-yl)-1-(4-(3-fluorophenethyl)piperazin-1-yl)prop-2-en-1-one]
5.7 µM | 5.1 µM | 3.9 µM | 4.5 µM | 5.1 µM | 3.5 µM | 3.5 µM | COc1ccc2c(c1)c(/C=C/C(=O)N1CCN(CCc3ccc4c(c3)OCO4)CC1)c(C)n2CCCN(C)C [Compound 2020, (E)-1-(4-(2-(benzo[d][1,3]dioxol-5-yl)ethyl)piperazin-1-yl)-3-(1-(3-(dimethylamino)propyl)-5-methoxy-2-methyl-1H-indol-3-yl)prop-2-en-1-one]
51.9 µM | 9.3 µM | 8.2 µM | 12.3 µM | 5.6 µM | 23.5 µM | 3.8 µM | CCN(CC)CCCn1c(C)c(/C=C/C(=O)N2CCN(CCc3cccc(OC)c3)CC2)c2cc(OC)ccc21 [Compound 2027, (E)-3-(1-(3-(diethylamino)propyl)-5-methoxy-2-methyl-1H-indol-3-yl)-1-(4-(3-methoxyphenethyl)piperazin-1-yl)prop-2-en-1-one]

The next lines start with the compound.

SMILES | IC50 [1] | IC50 [2] | IC50 [3] | IC50 [4] | IC50 [5] | IC50 (A549 lung (NSLC) cells) | IC50 (SK-Mel-28 melanoma cells)
CCOc1ccc2c(c1)c(/C=C/C(=O)N1CCN(CCc3ccc(F)cc3)CC1)c(C)n2CCCN(CC)CC [Compound 2036, (E)-3-(1-(3-(diethylamino)propyl)-5-ethoxy-2-methyl-1H-indol-3-yl)-1-(4-(4-fluorophenethyl)piperazin-1-yl)prop-2-en-1-one] | 4.7 µM | 4.9 µM | 1.5 µM | 5.1 µM | 4.4 µM | 4.3 µM | 3.2 µM
CCOc1ccc2c(c1)c(/C=C/C(=O)N1CCN(CCc3ccc(F)cc3)CC1)c(C)n2CCCN1CCN(C)CC1 [Compound 2037, (E)-3-(5-ethoxy-2-methyl-1-(3-(4-methylpiperazin-1-yl)propyl)-1H-indol-3-yl)-1-(4-(4-fluorophenethyl)piperazin-1-yl)prop-2-en-1-one] | 5 µM | 8.7 µM | 3.1 µM | 4.8 µM | 5 µM | 6.6 µM | 2.7 µM
Cc1c(C(=O)N2CCN(CCc3ccc4c(c3)OCO4)CC2)c2ccccc2n1CCCN(C)C [Compound 2040, (4-(2-(benzo[d][1,3]dioxol-5-yl)ethyl)piperazin-1-yl)(1-(3-(dimethylamino)propyl)-2-methyl-1H-indol-3-yl)methanone] | > 30 µM | > 30 µM | 26.4 µM | > 30 µM | > 30 µM | > 30 µM | 16.4 µM
COc1ccc2c(c1)c(C(=O)N1CCN(CCc3ccc(F)cc3)CC1)c(C)n2CCCN(C)C [Compound 2044, (1-(3-(dimethylamino)propyl)-5-methoxy-2-methyl-1H-indol-3-yl)(4-(4-fluorophenethyl)piperazin-1-yl)methanone] | 10.1 µM | 11 µM | 6.6 µM | 11.9 µM | 20.4 µM | 12.2 µM | 6.6 µM
Cc1c(C(=O)N2CCN(CCc3ccc(F)cc3)CC2)c2ccccc2n1CCCN(C)C [Compound 2038, (1-(3-(dimethylamino)propyl)-2-methyl-1H-indol-3-yl)(4-(4-fluorophenethyl)piperazin-1-yl)methanone] | > 30 µM | > 30 µM | > 30 µM | > 30 µM | > 30 µM | > 30 µM | > 30 µM
